One may read the EC50 as the midpoint of the concentration-response curve.

One test has as its system CAL-51 cells. Put plainly: CAL-51 Cell Proliferation Assay. The class given is cell-based. The conditions noted are these: for EC50: Homo sapiens, 120 hours incubation, 10-point dose response, 4-fold dilutions starting at 10 μM, Cell-Titer-Glo, read-out: CAL-51 Prolif EC50; for CAL-51 Prolif Ymin: minimal percent of DMSO control observed in the concentrations tested (Ymin-obs), 120 hours. A digest of the protocol: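 EC50 comes from a four-parameter logistic fit of blank-corrected, DMSO-normalised CellTiter-Glo signal after 120 h growth (37 °C, 350 cells/well, RPMI complete medium). Compounds ran as 10-point 4-fold series starting at 10 μM, duplicate, 0.1% DMSO. Ymin-obs records the minimal percent of DMSO control observed.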

The target of a further test is T1, FAK (Homo sapiens, UniProt Q05397).
T1 construct: homozygous knock-in of a HiBiT tag (Promega Corporation, Madison, WI) to the C-terminus of the FAK gene in its natural genomic locus; endogenous in cells; host or cells: JHH-4-FAK-HiBiT clone d01 (CRISPR-Cas9 knock-in at the endogenous locus)
Put plainly: FAK-HiBiT Degradation Assay. The class given is cell-based. The conditions noted are these: for DC50: JHH-4-FAK-HiBiT clone d01 cells, two hours incubation, 10-point dose response, 3-fold dilution starting at 1 μM, Nano-Glo HiBiT luminescence, read-out: FAK HiBiT EC50; for FAK HiBiT Ymin: lower limit of the four parameter fit (value A), Ymax derived using DMSO control, JHH-4-FAK-HiBiT cells, two hours. A digest of the protocol: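 Degradation read out by HiBiT lytic luminescence after 2 h compound exposure (top concentration 1 μM, 3-fold, 10 points) in JHH-4 clone d01 bearing endogenous FAK-HiBiT knock-in. Four-parameter logistic fit gave EC50 and Ymin; DMSO wells defined Ymax.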

T1 sequence (Q05397 whole entry): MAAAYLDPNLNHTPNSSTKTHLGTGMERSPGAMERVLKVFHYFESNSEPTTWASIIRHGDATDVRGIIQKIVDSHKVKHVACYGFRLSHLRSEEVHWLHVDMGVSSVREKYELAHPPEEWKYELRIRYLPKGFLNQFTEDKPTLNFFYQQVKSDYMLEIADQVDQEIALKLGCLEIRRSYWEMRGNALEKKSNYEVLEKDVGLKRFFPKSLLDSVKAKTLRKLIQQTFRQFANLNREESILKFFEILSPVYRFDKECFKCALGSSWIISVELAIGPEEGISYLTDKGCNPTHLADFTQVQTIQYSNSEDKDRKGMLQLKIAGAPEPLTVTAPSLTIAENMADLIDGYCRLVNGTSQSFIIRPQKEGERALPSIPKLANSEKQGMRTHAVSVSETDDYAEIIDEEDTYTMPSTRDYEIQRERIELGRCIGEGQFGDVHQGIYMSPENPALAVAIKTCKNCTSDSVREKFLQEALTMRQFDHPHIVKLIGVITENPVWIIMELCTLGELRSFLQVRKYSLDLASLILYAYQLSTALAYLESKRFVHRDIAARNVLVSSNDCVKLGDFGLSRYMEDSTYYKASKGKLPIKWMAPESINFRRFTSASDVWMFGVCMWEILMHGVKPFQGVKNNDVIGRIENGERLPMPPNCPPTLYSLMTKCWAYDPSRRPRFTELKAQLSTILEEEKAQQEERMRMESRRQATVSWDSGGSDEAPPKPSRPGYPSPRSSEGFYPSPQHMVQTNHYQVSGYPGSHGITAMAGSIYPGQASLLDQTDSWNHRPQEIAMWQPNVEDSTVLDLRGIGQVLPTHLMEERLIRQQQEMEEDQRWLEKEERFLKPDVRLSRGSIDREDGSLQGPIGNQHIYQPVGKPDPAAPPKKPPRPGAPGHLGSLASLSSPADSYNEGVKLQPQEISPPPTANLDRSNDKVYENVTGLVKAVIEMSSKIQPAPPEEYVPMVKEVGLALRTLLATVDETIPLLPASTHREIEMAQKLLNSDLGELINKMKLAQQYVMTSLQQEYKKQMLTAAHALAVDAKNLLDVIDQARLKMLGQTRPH

Regarding `O=C1CCC(N2Cc3cc(Cn4ncc5c(-c6ncc(Cl)cc6Cl)cc(N6CC(F)C6)nc54)ccc3C2=O)C(=O)N1` (stereo not shown) [Example 35, 3-(5-{[4-(3,5-dichloropyridin-2-yl)-6-(3-fluoroazetidin-1-yl)-1H-pyrazolo[3,4-b]pyridin-1-yl]methyl}-1-oxo-2,3-dihydro-1H-isoindol-2-yl)piperidine-2,6-dione], in the test on CAL-51 cells, the EC50 was determined as 0.59 nM and the “CAL-51 Prolif Ymin” value was 21.28. Besides, on FAK, the DC50 worked out at 0.97 nM and the “FAK HiBiT Ymin” value is listed as 10.02.

`O=C1CCC(N2Cc3cc(Cn4ccc5c(-c6ncc(C(F)(F)F)cc6Cl)cc(N6CC(F)C6)nc54)ccc3C2=O)C(=O)N1` (stereo not shown) [Example 15, 3-(5-((4-(3-chloro-5-(trifluoromethyl)pyridin-2-yl)-6-(3-fluoroazetidin-1-yl)-1H-pyrrolo[2,3-b]pyridin-1-yl)methyl)-1-oxoisoindolin-2-yl)piperidine-2,6-dione]: in the test with CAL-51 cells, the half-maximal effective concentration (EC50) amounted to 0.89 nM and the “CAL-51 Prolif Ymin” value is listed as 29.00. Further, at FAK, the DC50 was 0.95 nM and the “FAK HiBiT Ymin” value is reported as 7.50.

For the molecule `O=C1CC[C@H](N2Cc3cc(Cn4ncc5c(-c6ncc(C(F)(F)F)cc6Cl)cc(N6CC(F)C6)nc54)cnc3C2=O)C(=O)N1` [Example 77, (3S)-3-[3-({4-[3-chloro-5-(trifluoromethyl)pyridin-2-yl]-6-(3-fluoroazetidin-1-yl)-1H-pyrazolo[3,4-b]pyridin-1-yl}methyl)-7-oxo-5H,6H,7H-pyrrolo[3,4-b]pyridin-6-yl]piperidine-2,6-dione], in the test with CAL-51 cells, the EC50 stood at 3.67 nM and the “CAL-51 Prolif Ymin” value was 28.95. On FAK, the DC50 is 8 nM and the “FAK HiBiT Ymin” value is recorded as 8.29.

As to `O=C1CC[C@H](N2Cc3cc(Cn4ncc5c(-c6ccc(OCC(F)(F)F)cc6Cl)cc(N6CC(F)C6)nc54)ccc3C2=O)C(=O)N1` [Example 52, (3S)-3-[5-({4-[2-chloro-4-(2,2,2-trifluoroethoxy)phenyl]-6-(3-fluoroazetidin-1-yl)-1H-pyrazolo[3,4-b]pyridin-1-yl}methyl)-1-oxo-2,3-dihydro-1H-isoindol-2-yl]piperidine-2,6-dione], in the test with CAL-51 cells, the EC50 came out at 1.13 nM and the “CAL-51 Prolif Ymin” value worked out at 22.49. At FAK, the DC50 amounted to 2.4 nM and the “FAK HiBiT Ymin” value is 8.38.

Consider `Cc1cc(C(F)(F)F)cnc1-c1cc(N2CC[C@H](O)C2)nc2c1cnn2Cc1ccc2c(c1)CN([C@H]1CCC(=O)NC1=O)C2=O` [Example 110, (3S)-3-[5-({6-[(3S)-3-hydroxypyrrolidin-1-yl]-4-[3-methyl-5-(trifluoromethyl)pyridin-2-yl]-1H-pyrazolo[3,4-b]pyridin-1-yl}methyl)-1-oxo-2,3-dihydro-1H-isoindol-2-yl]piperidine-2,6-dione], for which, in the test on CAL-51 cells, the EC50 worked out at 186 nM and the “CAL-51 Prolif Ymin” value was 10.20. Besides, at FAK, the DC50 was determined as 45.3 nM and the “FAK HiBiT Ymin” value is recorded as 14.00.

`CC(C)(O)c1ccc(-c2cc(N3CCC3)nc3c2cnn3Cc2ccc3c(c2)CN(C2CCC(=O)NC2=O)C3=O)c(Cl)c1` (stereo not shown) [Example 105, 3-(5-{[6-(azetidin-1-yl)-4-[2-chloro-4-(2-hydroxypropan-2-yl)phenyl]-1H-pyrazolo[3,4-b]pyridin-1-yl]methyl}-1-oxo-2,3-dihydro-1H-isoindol-2-yl)piperidine-2,6-dione]: in the test on CAL-51 cells, the EC50 was 4.91 nM and the “CAL-51 Prolif Ymin” value came to 55.87. In addition, at FAK, the DC50 was determined as 35.7 nM and the “FAK HiBiT Ymin” value is listed as 27.68.

Consider `COc1cc(F)cnc1-c1cc(N2CC(F)C2)nc2c1cnn2Cc1ccc2c(c1)CN(C1CCC(=O)NC1=O)C2=O` (stereo not shown) [Example 130, 3-(5-{[4-(5-fluoro-3-methoxypyridin-2-yl)-6-(3-fluoroazetidin-1-yl)-1H-pyrazolo[3,4-b]pyridin-1-yl]methyl}-1-oxo-2,3-dihydro-1H-isoindol-2-yl)piperidine-2,6-dione], for which, in the test on CAL-51 cells, the EC50 is 3900 nM and the “CAL-51 Prolif Ymin” value was determined as 76.29. At FAK, the DC50 was at least 1000 nM and the “FAK HiBiT Ymin” value is recorded as 84.84.

`CN(C)c1cc(-c2ccc(C#N)cc2Cl)c2cnn(Cc3ccc4c(c3)CN(C3CCC(=O)NC3=O)C4=O)c2n1` (stereo not shown) [Example 12, 3-chloro-4-[6-(dimethylamino)-1-{[2-(2,6-dioxopiperidin-3-yl)-1-oxo-2,3-dihydro-1H-isoindol-5-yl]methyl}-1H-pyrazolo[3,4-b]pyridin-4-yl]benzonitrile]: in the test with CAL-51 cells, the EC50 was 0.99 nM and the “CAL-51 Prolif Ymin” value is 23.97. At FAK, the DC50 was 0.67 nM and the “FAK HiBiT Ymin” value was determined as 7.50.

For `O=C1CCC(N2Cc3cc(Cn4ncc5c(-c6ncc(C(F)(F)F)cc6Cl)cc(N6CC(F)C6)nc54)cc(F)c3C2=O)C(=O)N1` (stereo not shown) [Example 33, 3-[5-({4-[3-chloro-5-(trifluoromethyl)pyridin-2-yl]-6-(3-fluoroazetidin-1-yl)-1H-pyrazolo[3,4-b]pyridin-1-yl}methyl)-7-fluoro-1-oxo-2,3-dihydro-1H-isoindol-2-yl]piperidine-2,6-dione], in the test with CAL-51 cells, the EC50 turned out to be 0.51 nM and the “CAL-51 Prolif Ymin” value is 26.78. Besides, on FAK, the DC50 came to 0.91 nM and the “FAK HiBiT Ymin” value amounted to 5.36.

Turning to `Cc1cnc(-c2cc(N3CC(F)C3)nc3c2cnn3Cc2ccc3c(c2)CN(C2CCC(=O)NC2=O)C3=O)nc1` (stereo not shown) [Example 138, 3-(5-{[6-(3-fluoroazetidin-1-yl)-4-(5-methylpyrimidin-2-yl)-1H-pyrazolo[3,4-b]pyridin-1-yl]methyl}-1-oxo-2,3-dihydro-1H-isoindol-2-yl)piperidine-2,6-dione], in the test with CAL-51 cells, the EC50 amounted to 160 nM and the “CAL-51 Prolif Ymin” value came out at 89.63. Also, on FAK, the DC50 is at least 1000 nM and the “FAK HiBiT Ymin” value was 87.20.

`O=C1CCC(N2Cc3cc(Cn4ncc5c(-c6ncc(C(F)(F)F)cc6Cl)cc(N[C@H]6CCOC6)nc54)ccc3C2=O)C(=O)N1` (stereo partly drawn) [Example 132, 3-[5-({4-[3-chloro-5-(trifluoromethyl)pyridin-2-yl]-6-{[(3S)-oxolan-3-yl]amino}-1H-pyrazolo[3,4-b]pyridin-1-yl}methyl)-1-oxo-2,3-dihydro-1H-isoindol-2-yl]piperidine-2,6-dione]: in the test on CAL-51 cells, the EC50 was 0.1 nM and the “CAL-51 Prolif Ymin” value is listed as 89.52. In addition, at FAK, the DC50 was at least 1000 nM and the “FAK HiBiT Ymin” value is on record as 89.82.

With `Cc1cc(Cl)cnc1-c1cc(N2CC(F)C2)nc2c1cnn2Cc1ccc2c(c1)CN([C@H]1CCC(=O)NC1=O)C2=O` [Example 50, (3S)-3-(5-{[4-(5-chloro-3-methylpyridin-2-yl)-6-(3-fluoroazetidin-1-yl)-1H-pyrazolo[3,4-b]pyridin-1-yl]methyl}-1-oxo-2,3-dihydro-1H-isoindol-2-yl)piperidine-2,6-dione], in the test with CAL-51 cells, the EC50 was 2.12 nM and the “CAL-51 Prolif Ymin” value is 27.72. For the same molecule, on FAK, the DC50 is 2.23 nM and the “FAK HiBiT Ymin” value was 5.82.

On to `O=C1CCC(N2Cc3cc(Cn4ncc5c(-c6ncc(C(F)(F)F)cc6Cl)cc(N6CCCC6)nc54)ccc3C2=O)C(=O)N1` (stereo not shown) [Example 11, 3-[5-({4-[3-chloro-5-(trifluoromethyl)pyridin-2-yl]-6-(pyrrolidin-1-yl)-1H-pyrazolo[3,4-b]pyridin-1-yl}methyl)-1-oxo-2,3-dihydro-1H-isoindol-2-yl]piperidine-2,6-dione], for which, in the test on CAL-51 cells, the EC50 stood at 0.34 nM and the “CAL-51 Prolif Ymin” value is given as 22.89. In addition, at FAK, the DC50 is 0.64 nM and the “FAK HiBiT Ymin” value is recorded as 6.28.

In the case of `CCOc1cnc(-c2cc(N3CC(F)C3)nc3c2cnn3Cc2ccc3c(c2)CN(C2CCC(=O)NC2=O)C3=O)c(Cl)c1` (stereo not shown) [Example 44, 3-(5-{[4-(3-chloro-5-ethoxypyridin-2-yl)-6-(3-fluoroazetidin-1-yl)-1H-pyrazolo[3,4-b]pyridin-1-yl]methyl}-1-oxo-2,3-dihydro-1H-isoindol-2-yl)piperidine-2,6-dione], in the test with CAL-51 cells, the EC50 came out at 0.69 nM and the “CAL-51 Prolif Ymin” value was 28.22. Moreover, at FAK, the DC50 worked out at 1.73 nM and the “FAK HiBiT Ymin” value came out at 11.00.

`CCOc1cnc(-c2cc(N3CC(F)C3)nc3c2cnn3Cc2ccc3c(c2)CN([C@H]2CCC(=O)NC2=O)C3=O)c(C)c1` [Example 82, (3S)-3-(5-{[4-(5-ethoxy-3-methylpyridin-2-yl)-6-(3-fluoroazetidin-1-yl)-1H-pyrazolo[3,4-b]pyridin-1-yl]methyl}-1-oxo-2,3-dihydro-1H-isoindol-2-yl)piperidine-2,6-dione]: in the test on CAL-51 cells, the EC50 stood at 4.19 nM and the “CAL-51 Prolif Ymin” value was found to be 29.74. Further, at FAK, the DC50 came to 9.61 nM and the “FAK HiBiT Ymin” value was 8.29.

Turning to `CN1CCC(Nc2cc(-c3ncc(C(F)(F)F)cc3Cl)c3cnn(Cc4ccc5c(c4)CN(C4CCC(=O)NC4=O)C5=O)c3n2)C1` (stereo not shown) [Example 128, 3-[5-({4-[3-chloro-5-(trifluoromethyl)pyridin-2-yl]-6-[(1-methylpyrrolidin-3-yl)amino]-1H-pyrazolo[3,4-b]pyridin-1-yl}methyl)-1-oxo-2,3-dihydro-1H-isoindol-2-yl]piperidine-2,6-dione], in the test on CAL-51 cells, the EC50 is 191 nM and the “CAL-51 Prolif Ymin” value is 83.49. Moreover, at FAK, the DC50 came to 292 nM and the “FAK HiBiT Ymin” value is listed as 58.00.
